Results as given in US10968214B2, “KRas G12C inhibitors” (Eli Lilly and Company, priority 2018, dated 2021).
Like-named read-outs stand apart in the source and are kept apart here.

How the values were obtained:
[1] = target: T1, active KRas in H2122 xenograft tumors (Homo sapiens, UniProt P01116, G12C); test: In vivo target inhibition/PD, H2122 xenograft, active KRas; details: NCI-H2122, mouse; for inhibition at 10 mg/kg: 10 mg/kg single dose; for inhibition at 30 mg/kg: 30 mg/kg single dose
T1 construct: from tissue; host or cells: H2122 xenograft tumours from nude mice
T1 sequence (P01116 1-188 isoform P01116-2 G12C): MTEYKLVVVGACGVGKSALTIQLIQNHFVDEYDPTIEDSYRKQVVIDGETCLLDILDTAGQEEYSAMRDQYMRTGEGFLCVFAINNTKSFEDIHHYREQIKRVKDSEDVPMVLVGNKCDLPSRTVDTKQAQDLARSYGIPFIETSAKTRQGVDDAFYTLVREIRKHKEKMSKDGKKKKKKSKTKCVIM
Method: To evaluate in vivo target inhibition and anti-tumor efficacy of a compound, Human lung cancer cells, H358 or H2122 are implanted into nude mice xenograft tumor models. Either H358 or H2122 cells (10×10^6 in a 1:1 Matrigel® mix, 0.2 mL total volume) are implanted by subcutaneous injection in hind leg of nude female mice (Harlan Laboratories). A total of 5 mice each group are used for efficacy study, and a total of 3-4 mice each group are used for target engagement and PD study. Treatment is initiated with oral administration (gavage) of a test compound or vehicle (20% Captisol®, 25 mM phosphate, pH 2.0 in 0.2 mL volume when the tumor size reaches approximately […]. Tumor growth and body weight are monitored over time to evaluate efficacy and signs of toxicity. Bidimensional measurements of tumors are performed twice a week and tumor volumes are calculated based on mid-axis length and mid-axis width. Tumor volume data are transformed to a log scale to equalize variance across time and treatment groups. The log volume data are analyzed with a two-way repeated measures analysis of variance by time and treatment using the mixed procedures in SAS software (version 8.2). The correlation model for the repeated measures is spatial power. Treated groups are compared to the control group at each time point. The mixed procedure is also used separately for each treatment group to calculate adjusted means and standard errors at each time point. Both analyses account for the autocorrelation within each animal. The adjusted means and standard errors are plotted for each treatment group versus time.
For in vivo target inhibition and PD analysis, tumors are ground by mortar and pestle on dry ice and tumor fragments are added to 800 μL of lysis buffer containing 1% Triton X100, 25 mM Tris pH 7.5, 150 mM NaCl, 1 mM EDTA, and 1 mM EGTA with Halt protease and phosphatase inhibitor cocktail (Thermo Scientific, cat. no. 1861281) in lysing matrix D tubes (MP Biomedical®, cat. no. 6913-500) with one additional large bead (MP Biomedical® ¼″ ceramic sphere bead cat. no. 6540-412) per tube. Tumor fragments are homogenized in a Thermo Bio101® fast prep (FP120) at setting 4 for […] while cold for a total of 2 times. Lysates are spun at 14,000 rpm for 10 min at 4° C. to clarify. Protein estimation is done on the lysate supernatant using a BioRad Dc® protein assay and lysates are diluted in complete lysis/binding buffer from the Ras GTPase Chemi ELISA Kit® (Active Motif, cat. no. 52097). The active KRas ELISA was performed as follows: Glutathione-coated ELISA wells were incubated with diluted RAF1-GST in complete lysis/binding buffer for 1 hr at 4° C. with gentle agitation. Wells are washed 3 times with wash buffer and 100 μg of lysates are added to each well and incubated at RT for 1 hr with mild agitation. The wells are washed an additional 3 times, then primary antibody, diluted in antibody binding buffer, is added to each well. The plates are incubated for 1 hr. The wells are washed 3 more times before adding HRP-conjugated secondary antibody, diluted in antibody binding buffer, to each well. The plates are incubated at RT for 1 hr. ELISA wells are washed 4 times, chemiluminescent reagents is added and then luminescence is read. For pERK Meso Scale Discovery ELISA, 25 μg of protein containing 0.1% SDS is used; for pMEK Meso Scale Discovery ELISA, 50 μg of protein without SDS is used. Meso Scale Discovery Whole Cell Lysate Kits for pERK and pMEK are provided by Meso Scale Discovery.
After a single dose, the tumor samples are harvested at different time points. The tumor lysates are prepared as described above. The inhibition of pERK, pMEK, and active KRas is measured as described above.

[2] = test system: H1373 xenograft; test: Anti-tumor growth activity, H1373 lung xenograft; format: in vivo; details: 28 Day, negative = regression
[3] = test system: SW837; test: Combination 4 day growth assay (Cell TiterGlo), SW837; format: cell-based; details: Homo sapiens, SW837, 96 h, single treatment, read-out: Absolute IC50
Method: Cell lines for this study are obtained from ATCC and grown under ATCC recommended conditions, except for LXFA-983L, which is obtained from Oncotest/Charles Rivers Laboratories, Wilmington, Mass. and D122-96, which is obtained from L. Eisenbach (Weizman Institute of Science, Rehovot, Israel)—both grown under recommended conditions. […] The proliferation assay is performed as a 4 day growth assay using Cell TiterGlo® as the readout. Briefly, cells are plated in 96-well cell culture plates and allowed to adhere overnight at 37° C. The following day, cells are treated with compounds, either single treatments or combination treatments. First, the testing compounds are serially diluted in DMSO, followed by dilution into media as a 5× concentration with 1% DMSO, and finally added to cells in media to dilute to 1×. The cells are incubated at 37° C. for 4 more days. At the end of the incubation period, Cell TiterGlo® reagent is mixed and added to the wells. After 10 minutes, the luminescence is read by a Perkin Elmer Envision instrument. Absolute IC50 values generated by a 4-parameter logistics model for the single and combination treatments are generated, followed by combination indexes for each combination treatment and cell line. The combination IC50 values are adjusted based on the total concentration of each compound when added together. […] The combination index (CI) measures the degree to which the potency of a combination therapy differs from the expected-if-additive potency and is based on the Loewe definition of additivity.
[formula] Where • CAy and CBy are the concentrations of therapies A and B that produce an effect, y, when given in combination • ICAy and ICBy are the concentrations of A and B that produce an effect, y, when given individually The biological interpretation of the combination index is as follows: synergistic if the combination index <0.5, additive if the combination index is between 0.5 and 2, and antagonistic if the combination index is >2.

[4] = 2 hr, read-out: % Inhibition Active KRas
[5] = 4 hr, read-out: % Inhibition Active KRas
[6] = 8 hr, read-out: % Inhibition Active KRas
[7] = 12 hr, read-out: % Inhibition Active KRas
[8] = 24 hr, read-out: % Inhibition Active KRas

- inhibition at 10 mg/kg [1, 4]: 25.8%
- inhibition at 10 mg/kg [1, 5]: 32.3%
- inhibition at 10 mg/kg [1, 6]: 34.7%
- inhibition at 10 mg/kg [1, 7]: 37.1%
- inhibition at 10 mg/kg [1, 8]: 16.7%
- inhibition at 10 mg/kg ([1]; from 2-12 hr, read-out: active KRas inhibition): 26 to 37%
- inhibition at 30 mg/kg [1, 4]: 57.5%
- inhibition at 30 mg/kg [1, 5]: 78.8%
- inhibition at 30 mg/kg [1, 6]: 67%
- inhibition at 30 mg/kg [1, 7]: 46.5%
- inhibition at 30 mg/kg [1, 8]: 26.1%
- inhibition at 30 mg/kg ([1]; from 2-[…], read-out: active KRas inhibition): 26 to 79%
- inhibition at 100 mg/kg ([1]; 100 mg/kg single dose, 4 hr): 90.6%
- IC50 [3]: 101 nM
Structure (SMILES): C=CC(=O)N1CCN(c2ncnc3c(F)c(-c4ccc(F)c5sc(N)nc45)c(Cl)cc23)CC1 [Example 1, 1-{4-[7-(2-Amino-7-fluoro-1,3-benzothiazol-4-yl)-6-chloro-8-fluoroquinazolin-4-yl]piperazin-1-yl}prop-2-en-1-one]
- Tumor Growth Inhibition (%) or Regression (−%) ([2]; 15 mg/kg BID): −60%
- Tumor Growth Inhibition (%) or Regression (−%) ([2]; 30 mg/kg BID): −71.6%
- Tumor Growth Inhibition (%) or Regression (−%) ([2]; 30 mg/kg QD): −52.4%
